Measurements published in patent publication US12171766B2, “Methods of treating patients suffering from brain injury and methods of increasing the value of the extended Glasgow Outcome Scale of patients suffering from brain injury” (VERINOS OPERATIONS GMBH, priority 2021, dated 2024).

Tested on: adult intensive care patients with acute moderate and severe TBI
Test: NOSTRA phase III trial: Extended Glasgow Outcome Scale (eGOS) at 3 and 6 months, Ronopterin 17 mg/kg infused over 48 hours vs placebo, incl. post hoc subgroup analyses
Assay type: in vivo, human
Description: A phase III trial of Ronopterin infusion to adult TBI patients (18-60 years) with acute moderate and severe TBI was performed. Based on the results of the earlier phase II study, the NOSTRA (NO Synthase in TRAumatic Brain Injury) phase III trial was designed to detect clinically relevant differences in clinical outcome (Extended Glasgow Outcome Score at 6 months after injury) as primary endpoint.
NOSTRA III was a multicentre, prospective, two parallel groups, blinded, placebo-controlled, randomised phase III trial of Ronopterin infusion for 48 hours in adult intensive care patients with acute moderate and severe TBI. […] The detailed study protocol is described by Tegtmeier et al. Efficacy of Ronopterin (VAS203) in Patients with Moderate and Severe Traumatic Brain Injury (NOSTRA phase III trial): study protocol of a confirmatory, placebo-controlled, randomised, double blind, multi-centre study. Trials. 2020. A total of 224 evaluable patients with moderate and severe TBI were enrolled in 32 centres in Austria, France, Germany, Spain, and United Kingdom. The trial started on 24 Aug. 2016 with last-patient last-visit on 17 Jun. 2020.
Patients between 18 and 60 years of age with Glasgow Coma Score≥3 requiring intracranial pressure (ICP) monitoring were enrolled. Other inclusion criteria were TBI within the last 18 hours but at least 6 hours after the injury, which were expected to survive more than 24 hours after admission.
Ronopterin and placebo (0.9% saline) were infused continuously via central venous catheter at a constant rate. A total dose of 17 mg/kg body weight of Ronopterin was infused for 48 hours (daily dose 8.5 mg/kg body weight).
The primary outcome was the difference between eGOS in Ronopterin and placebo treated patients at 6 months after trauma. The eGOS was determined by a face to face meeting by trained assessors.
The null-hypothesis of no shift across the 8 ordered categories of eGOS for the two treatment groups was tested after six months based on a proportional odds model stratified by age (18-39 years and 40-60 years). The treatment effect was estimated using ordinal Logistic regression model as the (proportional) odds ratio of Ronopterin versus Placebo. Treatment and age (18-39 years and 40-60 years) were included in the model. The proportional odds assumption was tested using a Chi-Square Score Test.
As secondary efficacy endpoint the eGOS at 3 months was analysed using the same statistics.
The main objective of the post hoc analyses was to estimate the effect size of VAS203 compared with placebo for the primary endpoint eGOS-I in the subgroups time to infusion ≤12 hours and >12 hours. Supportive analyses were conducted by age group (<40 years, ≥40 years) because age group was used as a stratification factor in the study. Comparability between treatment groups regarding demographics as well as severity and location of disease was investigated using similar methods as in the main CSR.
The proportions of patients per eGOS-I level at 3 months and at 6 months were calculated. For the change in eGOS-I over time, the proportion of patients with changes from 3 to 6 months were calculated by eGOS-I level, and in addition categorised as decreased (i.e. any decrease in eGOS-I level from 3 to 6 months), unchanged (i.e. no change in eGOS-I level from 3 to 6 months), and increased (i.e. any increase in eGOS-I level from 3 to 6 months).
Ordinal logistic regression was used for the analysis of eGOS-I at 3 months and at 6 months, including treatment group and age group (<40 years, ≥40 years) as factors in the model. Estimated odds ratios for the comparison of the VAS203 and placebo groups of >1 mean that eGOS-I was higher in the VAS203 group than in the placebo group across the 8 levels, whereas odds ratios of <1 mean that eGOS-I was lower in the VAS203 group than in the placebo group. Odds ratios together with their 95% CIs were used to estimate and assess the size of the treatment effect of VAS203 compared to placebo. […]

[1] = female patients, ≤12 hours (FIGS. 14A-D)

CC(O)C(O)C1CNc2nc(N)nc(N)c2N1 [Ronopterin, 4-Amino-(6R,S)-5,6,7,8-tetrahydro-L-biopterin]
number of patients with increase in eGOS by at least 2 levels from 3 to 6 months (age 40-60 years, all times to infusion (FIG. 8C)): 10 | more patients with higher increase in eGOS over time vs placebo: significance (age 40-60 years, all times to infusion (FIG. 8D)): not (statistically) significant | increase in eGOS levels from 3 to 6 months (age 40-60 years, ≤12 hours (FIG. 9A)): up to 4 levels | number of patients with increase in eGOS by at least 2 levels from 3 to 6 months (age 40-60 years, ≤12 hours (FIG. 9C)): 5 | Odds ratio for increases in eGOS levels from 3 to 6 months (age group 18-39 (<40), early infusion (≤12 hours), vs placebo): 4.398 | patients with an increase in their eGOS levels (eGOS responders) vs placebo (age ≥40 years, ≤12 hours (FIGS. 9A-D)): trend to more patients with an increase in their eGOS levels | increase in eGOS levels from 3 to 6 months (all ages, >12 hours (FIG. 5E)): up to 4 levels | number of patients with increase in eGOS by at least 2 levels from 3 to 6 months (all ages, early infusion ≤12 hours (FIG. 5C)): 9 | number of patients with increase in eGOS by at least 2 levels from 3 to 6 months (all ages, late infusion >12 hours (FIG. 5G)): 15 | increase in eGOS levels from 3 to 6 months (all ages, ≤12 hours (FIG. 5A)): up to 4 levels | increase in proportion of patients with an eGOS increase by at least 1 level compared to Placebo: significance (all ages, ≤12 hours (FIGS. 5A-D)): significant | less patients with a decrease in eGOS over time vs placebo: significance (all patients, all times to infusion): not (statistically) significant | increase in eGOS levels from 3 to 6 months (all patients, all times to infusion (FIG. 4A)): up to 4 levels | number of patients with increase in eGOS by at least 2 levels from 3 to 6 months (all patients, all times to infusion (FIG. 4C)): 24 | more patients with higher increase in eGOS over time vs placebo: significance (all patients, all times to infusion (FIG. 4D)): not (statistically) significant | overall eGOS-I rating at 6 months, Ronopterin vs placebo (primary efficacy endpoint) (all patients, ordinal logistic regression): No difference | increase in eGOS levels from 3 to 6 months (female patients, >12 hours (FIG. 14E)): up to 2 levels | number of patients with increase in eGOS by at least 2 levels from 3 to 6 months (female patients, >12 hours (FIG. 14G)): 2 | increase in eGOS levels from 3 to 6 months (female patients, all times to infusion (FIG. 13A)): up to 2 levels | number of patients with increase in eGOS by at least 2 levels from 3 to 6 months (female patients, all times to infusion (FIG. 13C)): 2 | less female patients with higher increase in eGOS over time vs placebo: significance (female patients, all times to infusion (FIG. 13D)): not (statistically) significant | increase in proportion of patients with Good Recovery (eGOS 7 and 8) from 3 to 6 months, compared to Placebo (female patients, early infusion ≤12 hours (FIG. 18)): exceeding the proportion in Placebo-treated patients | increase in proportion of patients with Good Recovery (eGOS 7 and 8) from 3 to 6 months, compared to Placebo (female patients, late infusion >12 hours (FIG. 18)): exceeding the proportion in Placebo-treated patients | increase in eGOS levels from 3 to 6 months (female patients, ≤12 hours (FIG. 14A)): up to 2 levels | number of patients with increase in eGOS by at least 2 levels from 3 to 6 months (female patients, ≤12 hours (FIG. 14C)): 0 | Good Recovery at 3 months vs placebo [1]: higher Good Recovery at 3 months | eGOS responders vs placebo [1]: less female eGOS responders | increase in eGOS levels from 3 to 6 months (male patients, >12 hours (FIG. 12E)): up to 4 levels | number of patients with increase in eGOS by at least 2 levels from 3 to 6 months (male patients, >12 hours (FIG. 12G)): 13 | increase in eGOS levels from 3 to 6 months (male patients, all times to infusion (FIG. 11A)): up to 4 levels | number of patients with increase in eGOS by at least 2 levels from 3 to 6 months (male patients, all times to infusion (FIG. 11C)): 22 | more patients with higher increase in eGOS over time vs placebo: significance (male patients, all times to infusion (FIG. 11D)): not (statistically) significant | patients with a decrease in eGOS over time vs placebo (male patients, all times to infusion, p=0.04): significantly less | increase in proportion of patients with Good Recovery (eGOS 7 and 8) from 3 to 6 months, compared to Placebo (male patients, early infusion ≤12 hours (FIG. 17)): exceeding the proportion in Placebo-treated patients | increase in proportion of patients with Good Recovery (eGOS 7 and 8) from 3 to 6 months, compared to Placebo (male patients, late infusion >12 hours (FIG. 17)): less pronounced compared to Placebo-treated patients | increase in eGOS levels from 3 to 6 months (male patients, ≤12 hours (FIG. 12A)): up to 4 levels | number of patients with increase in eGOS by at least 2 levels from 3 to 6 months (male patients, ≤12 hours (FIG. 12C)): 9 | increase in proportion of patients with an eGOS increase by at least 1 level compared to Placebo: significance (male patients, ≤12 hours (FIGS. 12A-D)): significant | median eGOS at 6 months (time to infusion >12 hours): 5 | proportion of patients with Good Recovery (eGOS 7 and 8) at 6 months (time to infusion >12 hours): 25% | increase of proportion of patients with a Good Recovery at 6 months compared to the Placebo group (time to infusion ≤12 hours): 61% | median eGOS at 6 months (time to infusion ≤12 hours): 6 | proportion of patients with Good Recovery (eGOS 7 and 8) at 6 months (time to infusion ≤12 hours): 37% | NNT for Good Recovery (eGOS 7 and 8) at 6 months (time to infusion ≤12 hours, vs placebo): 8
